Assays:
Assay type in all cases: cell-based
HCT116 cells = test: cell cycle analysis, HCT116; settings: HCT116, Table 3
[1] = tested on: PanC-1 pancreatic cancer cells; test: hexoseaminidase cell proliferation assay, PanC-1
Protocol: (§1) Using hexoseaminidase assay, we determined the effect of the compounds on cell proliferation. […] The IC50 value at 48 hours is below 10 μM in all the cancer cell lines.
(§2) Using hexoseaminidase assay, we determined the effect of the compounds on cell proliferation. […] The MRL16 IC50 value at 48 hours is below 0.3 μM in Colon cancer cell lines. […] Overall, the analogs can be used as chemotherapeutic agents against colon and pancreatic cancer.

SW480 cells = test: cell cycle analysis, SW480; settings: SW480, Table 3
Protocol: The analogs were tested to determine the ability induce death of colon cancer cells.

[2] = tested on: MiaPaCa-2 pancreatic cancer cells; test: hexoseaminidase cell proliferation assay, MiaPaCa-2
Protocol: as §1, §2

SW480 colon cancer cells = test: hexoseaminidase cell proliferation assay, SW480
Excerpt: (§3) Using hexoseaminidase assay, we determined the effect of the compounds on cell proliferation. […]
(§4) Using hexoseaminidase assay, we determined the effect of the compounds on cell proliferation. […] […] […] Overall, the analogs can be used as chemotherapeutic agents against colon and pancreatic cancer.

[3] = tested on: HCT116 colon cancer cells; test: hexoseaminidase cell proliferation assay, HCT116
Excerpt: as §3, §4

[4] = tested on: colon, pancreatic and bladder cancer cells; test: hexoseaminidase cell proliferation assay, summaries over cell lines; settings: dose and time dependent
Protocol: Water solubility studies were performed with the CD/analog complexes. […] The observed IC50 value of THBCD at 48 h is below 10 μM in all the colon, pancreatic and bladder cancer cells.
as §1, §2

[5] = Homo sapiens, MIA PaCa-2, MiaPaCa-2, 24 h
[6] = Homo sapiens, MIA PaCa-2, MiaPaCa-2, 48 h
[7] = Homo sapiens, MIA PaCa-2, MiaPaCa-2, 72 h
[8] = Homo sapiens, HCT-116, HCT116, 24 h
[9] = Homo sapiens, HCT-116, HCT116, 48 h
[10] = Homo sapiens, HCT-116, HCT116, 72 h

IC50 ([1]; Homo sapiens, PANC-1, 24 h) [µM] | IC50 ([1]; Homo sapiens, PANC-1, 48 h) [µM] | IC50 ([1]; Homo sapiens, PANC-1, 72 h) [µM] | IC50 [2, 5] [µM] | IC50 [2, 6] [µM] | IC50 [2, 7] [µM] | IC50 (SW480 colon cancer cells; Homo sapiens, SW480, 24 h) [µM] | IC50 (SW480 colon cancer cells; Homo sapiens, SW480, 48 h) [µM] | IC50 (SW480 colon cancer cells; Homo sapiens, SW480, 72 h) [µM] | IC50 [3, 8] [µM] | IC50 [3, 9] [µM] | IC50 ([1]; PanC-1, 24 h) [µM] | IC50 ([1]; PanC-1, 72 h) [µM] | IC50 ([2]; MiaPaCa-2, 24 h) [µM] | IC50 ([2]; MiaPaCa-2, 48 h) [µM] | IC50 ([2]; MiaPaCa-2, 72 h) [µM] | IC50 (SW480 colon cancer cells; SW480, 48 h) [µM] | IC50 (SW480 colon cancer cells; SW480, 72 h) [µM] | IC50 ([3]; HCT116, 48 h) [µM] | IC50 ([3]; HCT116, 72 h) [µM] | SMILES | further results
– | – | – | – | – | – | – | – | – | – | – | > 50 | > 50 | > 50 | > 50 | > 50 | > 50 | > 50 | > 50 | > 50 | NNC(=O)c1cc2ccccc2cc1O [MRL BDM] | IC50 ([1]; PanC-1, 48 h): > 50 µM; IC50 (SW480 colon cancer cells; SW480, 24 h): > 50 µM; IC50 ([3]; HCT116, 24 h): > 50 µM
– | – | – | – | – | – | – | – | – | – | – | > 50 | 20 | > 50 | 25 | 17 | 20 | 18 | 25 | 22 | O=C(N/N=C/c1ccc(F)c(F)c1)c1cc2ccccc2cc1O [MRL DFB] | IC50 (SW480 colon cancer cells; SW480, 24 h): > 50 µM; IC50 ([3]; HCT116, 24 h): > 50 µM
– | – | – | – | – | – | – | – | – | – | – | > 50 | > 50 | > 50 | > 50 | > 50 | > 50 | > 50 | > 50 | > 50 | O=C(N/N=C/c1ccc(F)cc1)c1cc2ccccc2cc1O [MRL MFB] | IC50 ([1]; PanC-1, 48 h): > 50 µM; IC50 (SW480 colon cancer cells; SW480, 24 h): > 50 µM; IC50 ([3]; HCT116, 24 h): > 50 µM
– | – | – | – | – | – | – | – | – | – | – | > 50 | > 50 | > 50 | > 50 | > 50 | > 50 | > 50 | > 50 | > 50 | O=C(N/N=C/c1ccc(O)cc1)c1cc2ccccc2cc1O [MRL MHB] | IC50 ([1]; PanC-1, 48 h): > 50 µM; IC50 (SW480 colon cancer cells; SW480, 24 h): > 50 µM; IC50 ([3]; HCT116, 24 h): > 50 µM
– | – | – | – | – | – | – | – | – | – | – | > 50 | 40 | > 50 | 40 | 35 | 40 | 35 | 35 | 35 | O=C(N/N=C/c1cc(F)cc(F)c1)c1cc2ccccc2cc1O [MRL RFB] | IC50 ([1]; PanC-1, 48 h): 40 µM
– | – | – | – | – | – | – | – | – | – | – | > 50 | > 50 | > 50 | > 50 | > 50 | > 50 | > 50 | > 50 | > 50 | O=C(N/N=C/c1ccc(F)c(F)c1F)c1cc2ccccc2cc1O [MRL TFB] | IC50 ([1]; PanC-1, 48 h): > 50 µM; IC50 (SW480 colon cancer cells; SW480, 24 h): > 50 µM; IC50 ([3]; HCT116, 24 h): > 50 µM
> 50 | > 50 | > 50 | > 50 | > 50 | 25 | > 50 | > 50 | > 50 | > 50 | > 50 | – | – | – | – | – | – | – | – | – | O=C(N/N=C/c1ccc2ccccc2n1)c1cc2ccccc2cc1O [QNL] | IC50 [3, 10]: 20 µM

Second part, the compound before the results:

SMILES | IC50 ([1]; Homo sapiens, PANC-1, 24 h) [µM] | IC50 ([1]; Homo sapiens, PANC-1, 48 h) [µM] | IC50 ([1]; Homo sapiens, PANC-1, 72 h) [µM] | IC50 [2, 5] [µM] | IC50 [2, 6] [µM] | IC50 [2, 7] [µM] | IC50 (SW480 colon cancer cells; Homo sapiens, SW480, 24 h) [µM] | IC50 (SW480 colon cancer cells; Homo sapiens, SW480, 48 h) [µM] | IC50 (SW480 colon cancer cells; Homo sapiens, SW480, 72 h) [µM] | IC50 [3, 8] [µM] | IC50 [3, 9] [µM] | IC50 ([1]; PanC-1, 24 h) [µM] | IC50 ([1]; PanC-1, 72 h) [µM] | IC50 ([2]; MiaPaCa-2, 24 h) [µM] | IC50 ([2]; MiaPaCa-2, 48 h) [µM] | IC50 ([2]; MiaPaCa-2, 72 h) [µM] | IC50 (SW480 colon cancer cells; SW480, 48 h) [µM] | IC50 (SW480 colon cancer cells; SW480, 72 h) [µM] | IC50 ([3]; HCT116, 48 h) [µM] | IC50 ([3]; HCT116, 72 h) [µM] | further results
OC[C@H]1O[C@@H]2O[C@H]3[C@H](O)[C@@H](O)[C@@H](O[C@H]4[C@H](O)[C@@H](O)[C@@H](O[C@H]5[C@H](O)[C@@H](O)[C@@H](O[C@H]6[C@H](O)[C@@H](O)[C@@H](O[C@H]7[C@H](O)[C@@H](O)[C@@H](O[C@H]8[C@H](O)[C@@H](O)[C@@H](O[C@H]1[C@H](O)[C@H]2O)O[C@@H]8CO)O[C@@H]7CO)O[C@@H]6CO)O[C@@H]5CO)O[C@@H]4CO)O[C@@H]3CO [CD, β-cyclodextrin] | > 50 | > 50 | > 50 | > 50 | > 50 | > 50 | > 50 | > 50 | > 50 | > 50 | > 50 | – | – | – | – | – | – | – | – | – | G0/G1 (%) (HCT116 cells): 43.9%; G2M (%) (HCT116 cells): 10.9%; S (%) (HCT116 cells): 12.3%; SubG0 Dead Cells (%) (HCT116 cells): 31.0%; G0/G1 (%) (SW480 cells): 61.1%; G2M (%) (SW480 cells): 19.8%; S (%) (SW480 cells): 14.9%; SubG0 Dead Cells (%) (SW480 cells): 3.6%; IC50 [3, 10]: > 50 µM
O=C(N/N=C/c1coc2ccccc2c1=O)c1cc2ccccc2cc1O [CMR] | – | – | – | – | – | – | – | – | – | – | – | > 50 | > 50 | > 50 | > 50 | > 50 | > 50 | > 50 | > 50 | > 50 | IC50 ([1]; PanC-1, 48 h): > 50 µM; IC50 (SW480 colon cancer cells; SW480, 24 h): > 50 µM; IC50 ([3]; HCT116, 24 h): > 50 µM
C/C(=N\NC(=O)c1cc2ccccc2cc1O)c1cc2ccccc2oc1=O [COU] | > 50 | > 50 | > 50 | > 50 | > 50 | > 50 | > 50 | > 50 | > 50 | > 50 | > 50 | – | – | – | – | – | – | – | – | – | IC50 [3, 10]: > 50 µM
CC(=O)c1ccc2ccccc2c1O [MRL15] | > 10 | > 10 | > 10 | > 10 | > 10 | > 10 | > 10 | > 10 | > 10 | > 10 | > 10 | – | – | – | – | – | – | – | – | – | IC50 [3, 10]: > 10 µM
C/C(=N\NC(=O)c1ccccc1O)c1ccc2ccccc2c1O [MRL18] | > 10 | 4 | 2 | > 10 | > 10 | 10 | > 10 | 5 | 3 | > 10 | 3 | – | – | – | – | – | – | – | – | – | inhibition of cell proliferation (in words) [4]: potent inhibitor; IC50 [3, 10]: 1 µM
C/C(=N\NC(=O)c1ccccc1)c1ccc2ccccc2c1O [MRL19] | > 10 | 10 | 4 | > 10 | > 10 | > 10 | > 10 | > 10 | 5 | > 10 | 5 | – | – | – | – | – | – | – | – | – | inhibition of cell proliferation (in words) [4]: potent inhibitor; IC50 [3, 10]: 2.3 µM
C/C(=N\NC(=O)c1cc2ccccc2cc1O)c1ccc2ccccc2c1O [MRL20] | – | – | – | – | – | – | – | – | – | – | – | > 10 | 1 | > 10 | 9 | 8 | 1.2 | 1 | 0.5 | 0.4 | IC50 ([1]; PanC-1, 48 h): 5 µM; inhibition of cell proliferation (in words) [4]: potent inhibitor; IC50 (SW480 colon cancer cells; SW480, 24 h): > 2 µM; IC50 ([3]; HCT116, 24 h): > 2 µM
C/C(=N\NC(=O)c1ccco1)c1ccc2ccccc2c1O [MRL21] | – | – | – | – | – | – | – | – | – | – | – | > 10 | 3 | > 10 | 5 | 5 | 5 | 3 | 3.8 | 3 | IC50 ([1]; PanC-1, 48 h): 5 µM; inhibition of cell proliferation (in words) [4]: potent inhibitor; IC50 (SW480 colon cancer cells; SW480, 24 h): > 10 µM; IC50 ([3]; HCT116, 24 h): 10 µM
C/C(=N\NC(=O)Cc1cc2ccccc2[nH]1)c1ccc2ccccc2c1O [MRL22] | > 10 | > 10 | > 10 | > 10 | > 10 | > 10 | > 10 | > 10 | > 10 | > 10 | > 10 | – | – | – | – | – | – | – | – | – | IC50 [3, 10]: > 10 µM
C/C(=N\NC(N)=S)c1ccc2ccccc2c1O [MRL23] | > 10 | > 10 | > 10 | > 10 | 5 | 4 | > 10 | > 10 | > 10 | > 10 | > 10 | – | – | – | – | – | – | – | – | – | inhibition of cell proliferation (in words) [4]: potent inhibitor; IC50 [3, 10]: > 10 µM
